A word on the viability: it is a read-out of living cells in per cent, often relative to untreated cells.

Each structure is given as a SMILES string.

The nature of one data set: in vitro. The conditions noted are these: human, hela cells, % viability.
For the molecule `NS(=O)(=O)c1ccc(NC(=O)CSc2nc3sc4c(c3c(=O)n2-c2ccc(Cl)cc2)CCCC4)cc1` [CBK267577], the viability at 28.5 h, 10 µM was 91.9%. For `Cc1ccc(N(Cc2ccco2)C(=O)c2cccc(S(=O)(=O)N(C)C)c2)cc1` [CBK267578], the viability at 28.5 h, 10 µM amounted to 91.6%. As for `CN(C)S(=O)(=O)c1cccc(C(=O)N(Cc2ccc(F)cc2)Cc2ccco2)c1` [CBK267579], the viability at 28.5 h, 10 µM was determined as 88.8%. As to `CN(C)S(=O)(=O)c1cccc(-c2cn3cccnc3n2)c1` [CBK267580], the viability at 28.5 h, 10 µM was determined as 71.4%. Regarding `COc1cc(C2c3c(oc4ccc(Cl)cc4c3=O)C(=O)N2CC2CCCO2)ccc1OCc1ccccc1` (stereo not shown) [CBK267581], the viability at 28.5 h, 10 µM stood at 89.5%.

Take `CC(C)OC(=O)CSc1nnc(-c2cnccn2)n1Cc1ccco1` [CBK267586]: the viability at 28.5 h, 10 µM is 117%.

As to `C(=C\c1ccccc1)/CSc1nnc(-c2cnccn2)n1Cc1ccco1` [CBK267587], the viability at 28.5 h, 10 µM was 119%. On the same count and under the same terms, under `O=C(CSc1nnc(Cc2cccs2)n1-c1ccccc1)Nc1ccc(F)c(Cl)c1` [CBK267589] stands 92.3%; under `Cc1ccc(-c2csc3ncnc(SCc4nc5ccccc5[nH]4)c23)cc1` [CBK267590], 83.5%; under `O=C(CSc1nnc(-c2ccc(F)cc2)n1-c1ccccc1)Nc1cccc2ccccc12` [CBK267592], 89.8%.

Take `COc1ccc(NC(=S)NC(=O)CN2C(=O)c3ccccc3C2=O)c([N+](=O)[O-])c1` [CBK267594]: the viability at 28.5 h, 10 µM is 114%. Regarding `Cc1cc(NS(=O)(=O)c2ccc(NC(=O)c3cc4ccccc4o3)cc2)no1` [CBK267597], the viability at 28.5 h, 10 µM worked out at 88%.

On to `COc1ccc(S(=O)(=O)NCCc2ccc(S(N)(=O)=O)cc2)cc1[N+](=O)[O-]` [CBK267598], for which the viability at 28.5 h, 10 µM stood at 94.1%. Still for that read-out and setting: the same measure for `O=C1NC(=O)c2cc(S(=O)(=O)NCCCO)cc3cccc1c23` [CBK267602]: 110%; for `COc1ccc(OC)c(NS(=O)(=O)c2ccc(C(=O)O)cc2)c1` [CBK267603]: 106%; for `CS(=O)(=O)N1CCN(c2ccccc2NC(=O)c2cccnc2)CC1` [CBK267604]: 119%.

On to `CS(=O)(=O)N1CCN(c2ccccc2NC(=O)CSc2ccc(Cl)cc2)CC1` [CBK267607], for which the viability at 28.5 h, 10 µM amounted to 83.7%. Turning to `O=C(NC(=S)Nc1cccc2ncccc12)c1ccc(N2CCOCC2)c([N+](=O)[O-])c1` [CBK267608], the viability at 28.5 h, 10 µM was found to be 87.8%. Still for that read-out and setting: the same measure for `COc1ccc2oc(-c3ccc(NC(=O)c4cccc5ccccc45)cc3)nc2c1` [CBK267610]: 110%; for `Cc1ccc2[nH]c(/C(C#N)=C\c3cn(CC(=O)Nc4ccccc4)c4ccccc34)nc2c1` [CBK267612]: 105%.

With `C=CCOc1ccc2ccccc2c1CNc1nn[nH]n1` [CBK267619], the viability at 28.5 h, 10 µM was 92.8%.

Turning to `COc1cc(CNCc2cccs2)ccc1OCC(N)=O` [CBK267620C], the viability at 28.5 h, 10 µM is 95.7%. As to `COc1ccc(C(=O)Nc2ccc(S(=O)(=O)N3CCN(C)CC3)cc2)cc1` [CBK267622], the viability at 28.5 h, 10 µM turned out to be 92.8%. In the case of `O=C(Nc1cccc(Cl)c1)Nc1ccccc1NC(=O)Nc1cccc(Cl)c1` [CBK267624], the viability at 28.5 h, 10 µM was 92.4%. Still for that read-out and setting: the same measure for `O=C(CCSc1nc(-c2ccco2)cc(C(F)(F)F)n1)N1CCN(c2ccccn2)CC1` [CBK267626]: 99%. Same read-out and setting: the same measure for `O=C(CCSc1nc(-c2ccco2)cc(C(F)(F)F)n1)Nc1ccc2c(c1)OCO2` [CBK267627]: 104%; for `COc1ccc(-c2cc(C(F)(F)F)nc(SCC(=O)N(C)c3ccccc3)n2)cc1OC` [CBK267628]: 112%.

Turning to `Cc1ccc(O)c(NC(=O)c2nc3ncccn3n2)c1` [CBK267629], the viability at 28.5 h, 10 µM was 99.6%. `CCOC(=O)c1c(NC(=O)c2nc3ncccn3n2)sc(C)c1C` [CBK267630]: the viability at 28.5 h, 10 µM was 114%. Regarding `Cc1nn(Cc2cccc(Oc3ccccc3)c2)c(C)c1NC(=O)c1nc2ncccn2n1` [CBK267632], the viability at 28.5 h, 10 µM was determined as 89%.

As to `Cc1ccccc1Cn1nc(C)c(NC(=O)c2nc3n(n2)C(C(F)F)CC(C)N3)c1C` (stereo not shown) [CBK267633], the viability at 28.5 h, 10 µM came to 92.6%. `Cc1nn(Cc2c(F)cccc2Cl)c(C)c1NC(=O)c1cnn2c(C(F)F)cc(-c3ccccc3)nc12` [CBK267634]: the viability at 28.5 h, 10 µM is 95.3%. As to `O=C(O)c1cc2ncc(CCO)cn2n1` [CBK267635], the viability at 28.5 h, 10 µM is 99.6%. `O=C(NCC1CCNCC1)c1ccncc1` [CBK267637C]: the viability at 28.5 h, 10 µM worked out at 95%. Same read-out and setting: the same measure for `O=C(NCCCO)c1cc2ccccc2[nH]1` [CBK267638]: 87.9%; for `NCCCNC(=O)c1cc2ccccc2[nH]1` [CBK267639]: 88.4%. The same measure, in the same setting: the same measure for `O=C(Cn1c(=O)oc2ccccc21)Nc1cccc(C(=O)O)c1` [CBK267641]: 97.4%; for `O=C(CCn1cnc2ccccc2c1=O)Nc1ccc(S(=O)(=O)N2CCCC2)cc1` [CBK267642]: 93%. Still for that read-out and setting: under `CC1CCCC(C)N1S(=O)(=O)c1ccc(NC(=O)CCn2cnc3ccccc3c2=O)cc1` (stereo not shown) [CBK267643] stands 95.5%. Take `Cc1ccc([N+](=O)[O-])cc1NC(=O)CCn1cnc2ccccc2c1=O` [CBK267644]: the viability at 28.5 h, 10 µM came to 106%. Same read-out and setting: the same measure for `O=C(CCn1cnc2ccccc2c1=O)Nc1ccc(S(=O)(=O)N2CCOCC2)cc1` [CBK267645]: 98.9%.

For the molecule `CCn1c(COc2ccc(C(=O)O)cc2)nc2ccccc21` [CBK267647], the viability at 28.5 h, 10 µM was 91.7%.

On to `O=C(Cn1cc(C(=O)COc2ccccc2)c2ccccc21)Nc1ccccc1` [CBK267653], for which the viability at 28.5 h, 10 µM was determined as 110%. For `COC(=O)CN(c1ccc(Cl)cc1Cl)S(C)(=O)=O` [CBK267654], the viability at 28.5 h, 10 µM is 105%. The same measure, in the same setting: the same measure for `COC(=O)c1ccc(NC(=O)CN(c2ccc(F)c(Cl)c2)S(C)(=O)=O)cc1` [CBK267657]: 88.3%; for `O=C(COc1ccccc1)c1cn(CC(=O)N2CCc3ccccc32)c2ccccc12` [CBK267659]: 93.5%; for `Cc1c(C(=O)Nc2nc(-c3ccc(S(=O)(=O)N4CCOCC4)cc3)cs2)oc2ccc(Cl)cc12` [CBK267663]: 93.7%.

With `Cc1ccccc1-c1nc(S(=O)(=O)c2ccc(Cl)cc2)c(NCC2CCCO2)o1` (stereo not shown) [CBK267668], the viability at 28.5 h, 10 µM worked out at 113%. For `O=S(=O)(c1ccccc1)c1nc(-c2ccco2)oc1NCCCn1ccnc1` [CBK267670], the viability at 28.5 h, 10 µM worked out at 87.1%.

On to `O=S(=O)(c1ccc(F)cc1)c1nc(-c2cccs2)oc1N1CCN(Cc2ccccc2)CC1` [CBK267672], for which the viability at 28.5 h, 10 µM was determined as 89.7%. Consider `COc1ccc(C2CC(c3nc4ccccc4[nH]3)=NN2C(=O)CCN2CCCCC2)cc1` (stereo not shown) [CBK267673], for which the viability at 28.5 h, 10 µM came out at 99.8%. As to `Cc1nonc1OCCN1CCN(c2cc3c(cc2[N+](=O)[O-])n(C)c(=O)n3C)CC1` [CBK267676], the viability at 28.5 h, 10 µM is 104%. Same read-out and setting: the same measure for `CC(=O)Nc1ccccc1NC(=O)CCCN1C(=O)CCC1=O` [CBK267681]: 92.8%; for `CN(CC(=O)O/N=C(\N)c1cccnc1)S(=O)(=O)c1ccccc1` [CBK267684]: 94.3%; for `NC(=O)CSc1nnc(COc2cccc(Cl)c2)n1-c1ccccc1` [CBK267685]: 88.9%. Same read-out and setting: under `O=C(Cn1c(=O)oc2ccccc21)Nc1ccc(S(=O)(=O)Nc2nccs2)cc1` [CBK267686] stands 80.2%; under `Nc1nnc(SCCN2C(=O)c3ccccc3S2(=O)=O)s1` [CBK267688], 88.6%; under `CC(=O)Nc1ccc(S(=O)(=O)NC2(C(F)(F)F)NC(=O)N(c3ccc(Cl)cc3)C2=O)cc1` (stereo not shown) [CBK267689], 95.7%. Same read-out and setting: under `Cc1ccc(-c2cnc3ccccc3n2)cc1NC(=O)c1ccccc1S(=O)(=O)c1ccc([N+](=O)[O-])cc1` [CBK267690] stands 110%; under `O=C(CSc1nnc(-c2ccccc2Cl)[nH]1)c1ccc(O)c(O)c1` [CBK267693], 78.3%; under `c1ccc2[nH]c(CCCCCc3nc4ccccc4[nH]3)nc2c1` [CBK267694], 107%. `COc1ccc(CNC(=O)C2CC=CCC2C(=O)O)cc1OC` (stereo not shown) [CBK267695]: the viability at 28.5 h, 10 µM was found to be 86.6%. As for `CN(C)S(=O)(=O)NNC(=O)c1c[nH]c2ccccc12` [CBK267698], the viability at 28.5 h, 10 µM came out at 102%. The same measure, in the same setting: the same measure for `CC(N)C(=O)Nc1ccccc1-c1ccccc1` (stereo not shown) [CBK267700]: 98.7%. The same measure, in the same setting: under `CC(C)(O)C#Cc1ccccc1C(=O)NC(Cc1c[nH]c2ccccc12)C(=O)O` (stereo not shown) [CBK267701] stands 80.4%; under `O=C(NC(Cc1ccccc1)C(=O)O)c1ccc(C#CC2(O)CCCCC2)cc1` (stereo not shown) [CBK267702], 93%. Still for that read-out and setting: the same measure for `CC(C)(O)C#Cc1ccc(C(=O)NC(Cc2c[nH]c3ccccc23)C(=O)O)cc1` (stereo not shown) [CBK267703]: 96.5%; for `CC(C)(O)C#Cc1ccc(C(=O)NCCC(=O)O)s1` [CBK267704]: 97.1%; for `Cn1c(=O)c2c(ncn2CCCN)n(C)c1=O` [CBK267707C]: 91.8%. `Cn1c(=O)c2c(nc(N3CCOCC3)n2CC/N=C2/CCCCCN2)n(C)c1=O` [CBK267708C]: the viability at 28.5 h, 10 µM amounted to 85.7%. Turning to `Cc1sc(C(=O)Nc2ccc3ccccc3c2)cc1CC(=O)O` [CBK267710], the viability at 28.5 h, 10 µM was 96.4%. Same read-out and setting: under `Nc1ccc(/C=C/c2cccc(C(=O)O)n2)cc1` [CBK267711] stands 89.7%; under `CN(C)CCn1c2c(c3ccccc31)CCCn1cnnc1-2` [CBK267712C], 97.2%.

`CCCCOc1ccc(-c2nc(SCC(=O)O)c3c4c(sc3n2)COC(C)(C)C4)cc1` [CBK267716]: the viability at 28.5 h, 10 µM was found to be 99.1%. In the case of `Cc1c(Cl)ccc2c(C(=O)Nc3ccc(S(=O)(=O)N4CCOCC4)cc3)cc(-c3cccnc3)nc12` [CBK267718], the viability at 28.5 h, 10 µM came out at 85.5%.

Still in this data set, the particulars now being: human, hela cells, % viability, bulk resorufin, single well.
As to `NC(=O)Cn1cc(C(=O)COc2ccccc2)c2ccccc21` [CBK267650], the viability at 28.5 h, 10 µM worked out at 95.2%.

Values taken from PMC12040169 (PLOS Biology, 2025).
